# Experimental data: BindingDB's records for doi:10.1016/0960-894X(95)00058-2 (1995)
# Legend:
# [1] = target: Squalene monooxygenase (Sus scrofa); experiment: The compound was tested for its inhibitory activity against pig Squalene epoxidase at pH 7.4
# [2] = target: Squalene monooxygenase (Sus scrofa); experiment: The compound was tested for its inhibitory activity against pig Squalene epoxidase at pH 8.8
structure (smiles),measurement,setting,value
"CC(C)=CCC/C(=C/CC/C(C)=C/CC/C=C(\C)CC/C=C(\C)CCC=C(C)C)CN [6,11,15,19-tetramethyl-2-(4-methyl-3-pentenyl)-(2Z,6E,10E,14E)-2,6,10,14,18-icosapentaen-1-amine]",IC50,[1],109 µM
same,IC50,[2],32 µM
